Earlier results on one compound are cited in patent US20100029551A1, “Treatment Of Inflammatory Lung Conditions With Aerosolized Macrolide Antibiotics” (priority 2008, published 2010).

SMILES strings stand for the structures.

As for `CO[C@]1(C)C[C@@H](C)C(=O)[C@H](C)[C@@H](O)[C@](C)(O)[C@@H](C(C)O)OC(=O)[C@H](C)[C@@H](O[C@H]2C[C@@](C)(OC)[C@@H](O)[C@H](C)O2)[C@H](C)[C@H]1O[C@@H]1O[C@H](C)C[C@H](N(C)C)[C@H]1O` (some centres unmarked) [14-hydroxy clarithromycin], under “first-pass metabolite of clarithromycin”, the “Activity relative to clarithromycin” value was “approximately twice as active as clarithromycin”. Further, the “Plasma half-life relative to clarithromycin” value (plasma) is recorded as “significantly longer plasma half-life than clarithromycin”.
